Laboratory results: US10526646B2, “Chromogenic peroxidase substrates” (Dako Denmark A/S, priority 2015, dated 2020)
Converted amounts (≈) assume the structure as drawn.

Legend:
[1] = UV-VIS absorbance maxima of chromogenic conjugates and mixtures; format: physicochemical
Method: “Spectrally narrow” refers to a chromogen having less that 50 nm broadness at its maximum absorbance at half peak height by UV-VIS spectroscopy, measured in +99% water at pH, 6-8 in 10 μM concentration. A “magenta chromogen” is a spectrally narrow chromogen with peak absorbance between 525 and 530 nm, measured in +99% water at pH, 6.0-8.0 in 10 μM concentration. A “greenish-yellow chromogen” is a chromogen with peak absorbance below 475 nm and less than 10% absorbance at 530 nm or above relative to the peak absorbance, measured in +99% water at pH, 6.0-8.0 in 10 μM concentration. A “yellow chromogen” is a chromogen with peak absorbance below 505 nm and less than 10% absorbance at 530 nm or above relative to the peak absorbance, measured in +99% water at pH, 6.0-8.0 in 10 μM concentration. A “cyan chromogen” is a chromogen having maximal absorbance above 615 nm and less than 10% relative absorbance at any wavelength between 530 and 400 nm relative to the peak absorbance, measured in +99% water at pH, 6.0-8.0 m 10 μM concentration. An “orange chromogen” is a “spectrally narrow” chromogen that has maximum absorbance between 495 and 520 nm, measured in +99% water at pH, 6-8 in 10 μM concentration. A “dichroic chromogen” is a chromogen that has at least two absorbance maxima, separated by a local minimum at least 50 nm wide and one further global minimum between 390 and 700 nm measured in water between pH 6 and 8.

[2] = Solubility in substrate buffer as function of percentage of NMP; format: physicochemical
Method: Only Compound 6 having a piperazine amide stands out by absorbing at 536 nm, around 5 nm above the esters comprising Compounds 2, 13, 14 and 15 all with abs max within 531-533 nm. […] Addition of NMP to the buffer in all cases increased chromogen solubility. See result table below of the solubility of 2, 13 and 15 as function of percentage of NMP as organic co solvent, 0% representing neat aqueous buffer 50 mM imidazole: HCl, pH 6.8, 3% and 10% said percent.

HRP [3] = biological target: T1, HRP (Armoracia rusticana, UniProt P00433); assay: IHC staining of FFPE human tissues and Her2 control cell lines, Envision+ Dual link HRP visualization, DAB as reference; design: species or system horse radish; details: for colour of IHC stain / stain intensity and crispness compared with DAB: tested in 0.4 to 1 mM; for stain intensity and crispness compared with DAB: low and medium expression targets
T1 construct: purchased Dako K4061
T1 sequence (P00433 31-338): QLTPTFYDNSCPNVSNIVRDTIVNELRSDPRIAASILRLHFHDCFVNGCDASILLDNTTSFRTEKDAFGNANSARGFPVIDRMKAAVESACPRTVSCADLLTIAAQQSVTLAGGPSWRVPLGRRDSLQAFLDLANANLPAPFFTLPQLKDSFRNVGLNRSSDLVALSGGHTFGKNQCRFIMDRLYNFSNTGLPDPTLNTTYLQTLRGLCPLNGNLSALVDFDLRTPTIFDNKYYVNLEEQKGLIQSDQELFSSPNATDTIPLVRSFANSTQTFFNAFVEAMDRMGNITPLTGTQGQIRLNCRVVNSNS

HRP [4] = biological target: T1, HRP; assay: Triple immunohistochemical staining (Ki67, CD20, Her2) on Dako Autostainer; design: species or system horse radish; details: 0.5 mM conjugate, 50 mM imidazole:HCl pH 6.8, 0.003% hydrogen peroxide, 2.5% NMP, 5 min
Method: The exemplary triple staining method employed DAB in combination with Compounds 2 and 8, on a Dako Autostainer at room temperature. The steps of the method included: • 1. Blocking of endogenous peroxidase with peroxidase block (Dako S2023), 5 min. • 2. antiKi67 RTU antibody (Dako IR626), 20 mm • 3. Envision+dual Link HRP (Dako K4061), 20 min • 4. DAB (Dako K3468) 5 min. • 5. HRP quenching with peroxidase block (Dako S2023) with addition of 5 mg/mL alphacyano cinnamic acid, 5 min. • 6. antiCD20cy RTU antibody (Dako IR604), 20 min • 7. Envision+dual Link HRP (Dako K4061), 20 min • 8. 0.5 mM compound 2 in 50 mM imidazole: HCl pH 6.8, 0.003% hydrogen peroxide and 2.5% NMP, 5 min. • 9. HRP quenching with peroxidase block (Dako S2023) with addition of 5 mg/mL alphacyano cinnamic acid, 5 min. • 10. antiHer2 (Dako vial ST301 from HercepTest kit SK001) 20 min. • 11. Envision+dual Link HRP (Dako K4061), 20 min • 12. 0.5 mM compound 8 in 50 mM imidazole: HCl pH 6.8, 0.003% hydrogen peroxide and 2.5% NMP, 5 min. • 13. Counter stain with haematoxylin (Dako S3301)

HRP [5] = biological target: T1, HRP; assay: Fast CISH on human tissue slides, antiFITC-HRP; design: species or system horse radish; details: 1 mM in substrate buffer pH 6.8, 0.003% hydrogen peroxide, 5 min
HRP [6] = biological target: T1, HRP; assay: Tissue staining with mixtures of chromogens in chromogen buffer; design: species or system horse radish

Row | Absp nm (max) [1] [nm] | solubility ([2]; imidazole:HCl buffer (substrate buffer) with 3% NMP, aqueous buffer, 3% NMP in 50 mM imidazole:HCl pH 6.8) [µM] | solubility ([2]; imidazole:HCl buffer (substrate buffer) with 10% NMP, aqueous with cosolvent or surfactant or cyclodextrin, 10% NMP in 50 mM imidazole:HCl pH 6.8) [µM] | solubility ([2]; imidazole:HCl buffer (substrate buffer), 0% NMP, neat aqueous buffer 50 mM imidazole:HCl pH 6.8) [µM] | colour of IHC stain (HRP [3]) | stain produced in triple staining (HRP [4]) | SMILES | IHC staining performance of Rhodamine 6G derivatives with different 4-hydroxy cinnamic acid derivatives (HRP [3]; peroxidase substrate moiety varied) | stain intensity and crispness compared with DAB (HRP [3]) | staining in the high expression range (HRP [3]; very high expression targets, trained observers) | CISH signals (HRP [5]) | mutagenicity (Mutagenicity test) | intensity compared with DAB (HRP [6]; 0.6 mM in 15 mM imidazole pH 6.8, 4% NMP, 0.1% NP40-Nonidet, 0.01% Benzalkonium chloride, 0.03% hydrogen peroxide) | colour of stain of compound alone (HRP [6]; alone)
1 | 531 | 1200 (≈ 899 µg/mL) | 3600 (≈ 2700 µg/mL) | 1000 (≈ 749 µg/mL) | red stains | red Her2 membrane stain | CC/N=c1\cc2oc3cc(NCC)c(C)cc3c(-c3ccccc3C(=O)OCC(=O)NCCOCCOCCNC(=O)/C=C/c3ccc(O)cc3)c-2cc1C [Compound 2, Rhodamine 6G-L12-Cou] | both strong and crisp stains with no background | fully matched DAB in intensity and crispness | performed better and more dynamically in the high expression range | large and distinct dots in both Tonsil tissues | does not have significant mutagenicity | matching DAB in intensity in the low range | changed from bright magenta at low intensities toward more full reds at higher intensities
2 | 567 | – | – | – | slightly bluish purple stains | purple CD20 membrane stain | CCN(CC)c1ccc2c(-c3ccccc3C(=O)N3CCN(CC(=O)NCCOCCOCCNC(=O)/C=C/c4ccc(O)cc4)CC3)c3ccc(=[N+](CC)CC)cc-3oc2c1 [Compound 8, RhodamineB-Pip-L12-Cou] | – | more than matched DAB in intensity and crispness | – | – | – | – | –
